Assays:
[1] = biological target: Delta-type opioid receptor (Rattus norvegicus, UniProt P33533)
Mu-type opioid receptor = Mu-type opioid receptor (Rattus norvegicus, UniProt P33535)
[2] = biological target: Kappa-type opioid receptor (Rattus norvegicus, UniProt P34975)
Nociceptin receptor = Nociceptin receptor (Rattus norvegicus, UniProt P35370)
Nociceptin receptor, sequence (P35370 whole entry): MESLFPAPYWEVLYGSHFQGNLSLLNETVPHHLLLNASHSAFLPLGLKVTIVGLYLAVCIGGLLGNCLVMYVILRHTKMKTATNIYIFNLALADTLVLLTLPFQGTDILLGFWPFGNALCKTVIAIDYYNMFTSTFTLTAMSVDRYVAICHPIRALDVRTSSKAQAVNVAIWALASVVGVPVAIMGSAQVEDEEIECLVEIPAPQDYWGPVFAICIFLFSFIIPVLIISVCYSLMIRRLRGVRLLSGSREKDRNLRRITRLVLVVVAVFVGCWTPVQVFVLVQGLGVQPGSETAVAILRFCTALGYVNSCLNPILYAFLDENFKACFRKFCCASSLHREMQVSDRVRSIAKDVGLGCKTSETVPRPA

Delta-type opioid receptor, sequence (P33533 whole entry): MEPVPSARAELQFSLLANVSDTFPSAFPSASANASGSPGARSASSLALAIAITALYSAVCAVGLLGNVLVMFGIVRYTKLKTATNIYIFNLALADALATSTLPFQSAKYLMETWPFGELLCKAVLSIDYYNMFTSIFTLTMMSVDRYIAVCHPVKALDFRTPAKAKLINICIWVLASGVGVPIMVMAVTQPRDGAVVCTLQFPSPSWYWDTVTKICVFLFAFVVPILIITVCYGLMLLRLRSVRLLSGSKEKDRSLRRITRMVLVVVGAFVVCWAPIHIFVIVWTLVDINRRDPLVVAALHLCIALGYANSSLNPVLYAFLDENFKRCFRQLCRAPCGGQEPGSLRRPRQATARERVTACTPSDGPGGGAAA
Kappa-type opioid receptor, sequence (P34975 whole entry): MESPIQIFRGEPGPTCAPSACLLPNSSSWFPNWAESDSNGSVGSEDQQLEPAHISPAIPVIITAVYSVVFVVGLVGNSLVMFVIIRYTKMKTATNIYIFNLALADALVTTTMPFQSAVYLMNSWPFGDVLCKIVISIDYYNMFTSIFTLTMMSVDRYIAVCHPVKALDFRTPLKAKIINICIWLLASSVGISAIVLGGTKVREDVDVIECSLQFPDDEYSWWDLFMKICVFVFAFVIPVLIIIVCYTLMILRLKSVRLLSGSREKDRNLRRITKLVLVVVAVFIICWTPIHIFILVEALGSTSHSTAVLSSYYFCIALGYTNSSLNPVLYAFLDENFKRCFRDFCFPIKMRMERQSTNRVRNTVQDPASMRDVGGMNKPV
Mu-type opioid receptor, sequence (P33535 whole entry): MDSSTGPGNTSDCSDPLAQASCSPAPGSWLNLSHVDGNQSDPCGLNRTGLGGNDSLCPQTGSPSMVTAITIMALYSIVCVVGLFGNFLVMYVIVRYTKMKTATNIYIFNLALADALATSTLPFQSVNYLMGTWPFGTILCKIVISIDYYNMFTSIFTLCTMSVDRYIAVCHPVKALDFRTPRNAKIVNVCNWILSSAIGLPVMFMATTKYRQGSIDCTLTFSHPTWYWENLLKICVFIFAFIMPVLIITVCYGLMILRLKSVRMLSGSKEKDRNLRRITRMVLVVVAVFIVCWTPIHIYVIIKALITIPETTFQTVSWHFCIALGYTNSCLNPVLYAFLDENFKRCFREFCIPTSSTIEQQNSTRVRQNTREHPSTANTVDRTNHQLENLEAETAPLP

Compound	Ki [1] [µM]	Ki (Mu-type opioid receptor) [µM]	Ki [2] [µM]	Ki (Nociceptin receptor) [µM]
CCC12CCN(CC3CC3)C(C(=O)c3ccc(O)cc31)C2C (centres undefined) [EKC]	0.00246	0.00193	0.00212	–
CC(C)C[C@H](NC(=O)[C@H](CCCCN)NC(=O)[C@H](CCCN=C(N)N)NC(=O)[C@H](C)NC(=O)[C@H](CO)NC(=O)[C@H](CCCCN)NC(=O)[C@H](CCCN=C(N)N)NC(=O)[C@H](C)NC(=O)CNC(=O)[C@@H](NC(=O)[C@H](Cc1ccccc1)NC(=O)CNC(=O)CNC(=O)[C@@H](N)Cc1ccccc1)[C@@H](C)O)C(=O)N[C@@H](C)C(=O)N[C@@H](CC(N)=O)C(=O)N[C@@H](CCC(N)=O)C(=O)O [OFQ 1-17]	> 10	> 10	> 10	–
H-FSEFMRQYLVLSMQSSQ-OH [OFQ II 1-17]	> 10	> 10	> 10	> 10
H-FSEFMRQYLVLSMQSSQRRRTLHQNGNV-NH2 [NSC_0]	> 10	> 10	> 10	> 10
